From patent US10407409B2, “6-(5-hydroxy-1H-pyrazol-1-yl)nicotinamide inhibitors of PHD” (Takeda Pharmaceutical Company Limited, priority 2013, dated 2019)

Experiments:
[1] = tested on: HIF1a protein in H9c2 rat cardiomyocytes; test: Cell-based HIF-alpha stabilization assay (inhibition of PHD in cells); details: 24 hrs compound incubation, HIF1a protein by ELISA; for EC50: Rattus norvegicus, H9c2, 24 h, read-out: Inhibition of PHD in cells (pEC50) (converted)
Procedure: Example B Inhibition of PHD in Cells
PHD Inhibition is Determined Using (Secondary Assay)
Cell-Based HIF-Alpha Stabilization Assay:
H9c2 rat cardiomyocytes (ATCC) were seeded in 96-well tissue culture microplates and cultured for 24 hours prior to addition of compounds (11 point range of serial dilutions) or dimethylsulfoxide vehicle. After 24 hrs of compound incubation, whole cell extracts were prepared by lysing cells in cell extraction buffer containing protease and phosphatase inhibitors (Meso-Scale Discovery). HIF1a protein content was assessed by ELISA (Meso-Scale Discovery) and expressed as a % relative to the maximum response obtained from the positive control, desferrioxamine (Sigma-Aldrich). Compound EC50s were obtained by curve-fitting using XLfit4 MicroSoft Excel curve-fitting software. Compound EC50pos were obtained using XLfit4 to calculate the compound concentration that results in 50% of the desferrioxamine maximum response.

[2] = biological target: PHD2 enzyme (residues 181-417) (Homo sapiens (Human), UniProt Q9GZT9); test: Inhibition of PHD enzyme (LC/MS peptide hydroxylation assay); assay type: biochemical; details: PHD2 (residues 181-417) 5 nM, 60 min pre-incubation, -log(IC50), IC50 molar; for IC50: read-out: PHD Inhibition (pIC50) (converted)
Procedure: Example A Inhibition of PHD Enzyme
The IC50 values for the PHD2 enzyme (residues 181-417) were determined by mixing increasing amounts of inhibitor with a fixed amount of enzyme (5 nM, final concentration) and Biotin labeled peptide (Biotin-Asp-Leu-Glu-Met-Leu-Ala-Pro-Tyr-Ile-Pro-Met-Asp-Asp-Asp-Phe-Gln-Leu, 1 uM final concentration) and 2-Oxyglutarate (2 uM final concentration) in 50 mM HEPES, 50 mM KCl, 0.5 mM TCEP, 2 uM FeCl2, 0.1 mg/ml BSA, at pH 7.3. The reaction was conducted by pre-incubating the enzyme in the presence of inhibitor for 60 min at room temperature. The activity of the free enzyme was measured by adding the peptide, the 2-Oxoglutarate (see above for final concentrations), and Ascorbic Acid (1 mM final concentration). The enzymatic activity was quenched after 60 min by adding an excess of a tight binding inhibitor to the assay mixture. The amount of product released was measured by using a LC/MS system (Agilent HPLC with Applied Biosystems API3000 Mass Spectrometer). Data were analyzed using the classical isotherm equation for the determination of IC50 values and are pIC50, i.e., −log(IC50), where IC50 is molar concentration and are reported as pIC50, i.e., −log(IC50), where IC50 is molar concentration.

Chain of PHD2 enzyme (residues 181-417) (Q9GZT9 181-417): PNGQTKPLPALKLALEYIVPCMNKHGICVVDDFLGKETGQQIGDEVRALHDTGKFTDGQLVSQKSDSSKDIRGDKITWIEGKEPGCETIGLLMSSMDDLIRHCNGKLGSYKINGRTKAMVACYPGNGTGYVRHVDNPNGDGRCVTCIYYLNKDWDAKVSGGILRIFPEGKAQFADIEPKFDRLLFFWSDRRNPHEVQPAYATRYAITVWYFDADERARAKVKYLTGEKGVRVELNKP

SMILES	EC50 [1] [µM]	IC50 [2] [µM]	Inhibition of PHD in cells (pEC50) [1]	PHD Inhibition (pIC50) [2]
Cc1cc(C#N)ccc1-c1cnn(-c2ccc(C(=O)N3CCN4CCCC4C3)cn2)c1O (racemic) [Example 288, (+/−)-4-(5-hydroxy-1-(5-(octahydropyrrolo[1,2-a]pyrazine-2-carbonyl)pyridin-2-yl)-1H-pyrazol-4-yl)-3-methylbenzonitrile]	0.575	0.00331		
CCN(C)CC1CCN(C(=O)c2ccc(-n3ncc(-c4ccc(C#N)cc4C)c3O)nc2)C1 (racemic) [Example 295, (+/−)-4-(1-(5-(3-((ethyl(methyl)amino)methyl)pyrrolidine-1-carbonyl)pyridin-2-yl)-5-hydroxy-1H-pyrazol-4-yl)-3-methylbenzonitrile]	0.339	0.0141		
CC(NC(=O)c1ccc(-n2ncc(-c3ccc(C#N)cc3)c2O)nc1)C1CC1 (stereo in doubt) [Example 260, (S)-6-(4-(4-cyanophenyl)-5-hydroxy-1H-pyrazol-1-yl)-N-(1-cyclopropylethyl)nicotinamide]			6.23	7.17
Cc1cc(C#N)ccc1-c1cnn(-c2ccc(C(=O)N3CCCC(N(C)C4CC4)C3)cn2)c1O (stereo in doubt) [Example 386, (S)-4-(1-(5-(3-(cyclopropyl(methyl)amino)piperidine-1-carbonyl)pyridin-2-yl)-5-hydroxy-1H-pyrazol-4-yl)-3-methylbenzonitrile]			6.15	8.23
COc1cc(-c2cnn(-c3ccc(C(=O)NCc4ccccc4)cn3)c2O)ccn1 [Example 2, N-benzyl-6-(5-hydroxy-4-(2-methoxypyridin-4-yl)-1H-pyrazol-1-yl)nicotinamide]	1.26			7.03
COCC1(NC(=O)c2ccc(-n3ncc(-c4ccnc(OC)c4)c3O)nc2)CCCC1 [Example 3, 6-(5-hydroxy-4-(2-methoxypyridin-4-yl)-1H-pyrazol-1-yl)-N-(1-(methoxymethyl)cyclopentyl)nicotinamide]	0.724			7.3
COc1cc(-c2cnn(-c3ccc(C(=O)NC4(C)CC4)cn3)c2O)ccn1 [Example 4, 6-(5-hydroxy-4-(2-methoxypyridin-4-yl)-1H-pyrazol-1-yl)-N-(1-methylcyclopropyl)nicotinamide]	0.525			6.92
COc1cc(-c2cnn(-c3ccc(C(=O)NC(C)C)cn3)c2O)ccn1 [Example 5, 6-(5-hydroxy-4-(2-methoxypyridin-4-yl)-1H-pyrazol-1-yl)-N-isopropylnicotinamide]	0.562			7.01
COc1cc(-c2cnn(-c3ccc(C(=O)NCC(C)C)cn3)c2O)ccn1 [Example 6, 6-(5-hydroxy-4-(2-methoxypyridin-4-yl)-1H-pyrazol-1-yl)-N-isobutylnicotinamide]	0.955			7.02
COc1cc(-c2cnn(-c3ccc(C(=O)NCCOC(C)C)cn3)c2O)ccn1 [Example 7, 6-(5-hydroxy-4-(2-methoxypyridin-4-yl)-1H-pyrazol-1-yl)-N-(2-isopropoxyethyl)nicotinamide]	1			7.03
CCCNC(=O)c1ccc(-n2ncc(-c3ccnc(OC)c3)c2O)nc1 [Example 8, 6-(5-hydroxy-4-(2-methoxypyridin-4-yl)-1H-pyrazol-1-yl)-N-propylnicotinamide]	0.603			7.03
CCCN1CCN(C(=O)c2ccc(-n3ncc(-c4ccc(C#N)cc4C)c3O)nc2)C[C@@H]1C [Example 374, (S)-4-(5-hydroxy-1-(5-(3-methyl-4-propylpiperazine-1-carbonyl)pyridin-2-yl)-1H-pyrazol-4-yl)-3-methylbenzonitrile]	0.1			
Cc1cc(C#N)ccc1-c1cnn(-c2ccc(C(=O)N3CCN(C)C[C@@H]3C)cn2)c1O [Example 391, (S)-4-(1-(5-(2,4-dimethylpiperazine-1-carbonyl)pyridin-2-yl)-5-hydroxy-1H-pyrazol-4-yl)-3-methylbenzonitrile]	1.55			
